# “Also recorded” adds a separate entry of the source.
# Key:
# [1] = Measurement of zeta potential of liposomes; assay type: physicochemical; conditions: 37°C
# Experimental: Portions of the prepared liposome ([lipid]=10 mg/ml) were respectively added to acetate buffers with different pHs (7.4, 7, 6, 5, 4) (30 mM) to the final concentration of [lipid]=1 mg/mL, and then the zeta potential at 37° C. was measured. Zetasizer 4 manufactured by Malvern was used. A capillary cell was filled with a liposome-dispersed liquid obtained by dilution to the measurement concentration, and the measurement was performed at 37° C. 3 times.
# Portions of the prepared liposome ([lipid]=10 mg/ml) were respectively added to acetate buffers with different pHs (7.4, 7, 6, 5, 4) (20 mM) to the final concentration of [lipid]=1 mg/mL, and then the zeta potential at 37° C. was measured.
# Portions of each of the prepared liposomes ([lipid]=10 mg/ml) were respectively added to acetate buffers with different pHs (7.4, 7, 6, 5, 4) (20 mM) to the final concentration of [lipid]=1 mg/mL, and then the zeta potential at 37° C. was measured.
# [2] = Degree of fusion with anionic liposome (Example 9); conditions: liposome compound/cholesterol/PEG-Glu2C18, 37°C, 30 minutes
# Experimental: In a manner similar to that in Example 2, the degree of fusion of the pH-responsive liposome with respect to the anionic liposome (DOPC/DPPG, 5/1 (molar ratio)) was calculated. The measurement method was as follows. 50 μL of 1 mM anionic liposome and 50 μL of 9 mM (converted to the mixed lipid basis) pH-responsive liposome were added to 1.9 mL of each of acetate buffers with different pHs and allowed to stand at 37° C. 30 minutes later, […] of the mixture was dividedly poured and added to 1.9 mL of HEPES buffer (pH 7.4). The resultant mixture was transferred to a quartz cell and subjected to fluorescence measurement (λex: 460 nm, 530 nm). The measurement was carried out using RF-5300PC manufactured by Shimadzu.
# [3] = Preparation of liposome from mixed lipid (dispersion in water, high-pressure extrusion); assay type: physicochemical; conditions: mixed lipid compound/cholesterol/PEG-Glu2C18 dispersed in water, high-pressure extrusion 0.22 μm
# Experimental: (§1) Compound 7, 8 or 9 (0.177 mmol), cholesterol (0.179 mmol) and PEG-Glu2C18 (1.0 μmol) were dissolved in benzene, and the mixture was freeze-dried to prepare a mixed lipid. 20 mg of this mixed lipid was dispersed in 1 mL of water for injection, and the resultant mixture was stirred for 6 hours. After that, liposome having a particle size of about 240 nm was prepared by means of the high-pressure extrusion method (final pore diameter: 0.22 μm).
# as §1, with “Compound 3, 12” for “Compound 7, 8”, “or 13” for “or 9”, “(1.0 mmol)” for “(1.0 μmol)”
# [4] = Concentration of Compound 3 in rat tissue 24 hours after i.v. liposome (LC/MS/MS); assay type: in vivo; conditions: for concentration at 24 h: male, SD, rat, iv, 24 hours after i.v. liposome
# Experimental: A pH-responsive liposome was prepared from mixed lipid (Compound (3)/cholesterol/PEG-Glu2C18=5/5/0.03 (mol)) using the high-pressure extrusion method. In the preparation, the particle size of the liposome was adjusted to 200 to 250 nm. Further, BSA was encapsulated in the internal aqueous phase. The prepared pH-responsive liposome ([Lipid]=20 mg/mL) was intravenously administered to a SD rat (male, body weight of 300 g or less) via the tail vein in an amount of 2 ml/kg under ether anesthesia. The number of rats used was N=3. Prior to the administration and 5 minutes, 1, 2, 6 and 24 hours after the administration, blood was collected (about 500 μL). The obtained blood was subjected to centrifugation (2,000×g, 20 minutes) to obtain plasma (liposome-suspended plasma), and this was preserved at −80° C. Further, after blood was collected 24 hours after the administration, the liver, spleen, lung and kidney were isolated, the wet weight thereof was measured, and these materials were preserved at −80° C. After that, homogenization was carried out using a saline in an amount 4 times greater than the wet weight of the organs.
# A material in which the procedure is carried out until 100 μL of methanol is added to 10 μL of homogenate solution of plasma and the organs was used as a sample for measurement of specimen.
# To the above-described sample for measurement, a solution to which an internal standard material (1,5-dihexadecyl N-glutamyl-L-glutamate (αGlu-Glu2C16)) was added (900 μL) was added, and the mixture was subjected to vortex stirring. After that, the mixture was allowed to stand at room temperature for at least 10 minutes. After that, the mixture was subjected to vortex stirring again and centrifuged at 4° C. at 10,000×g for 15 minutes. The obtained supernatant was transferred to an LC vial.
# An analyte for producing a calibration curve for measurement of tissue was measured, and a calibration curve of 1-100 μg/ml was prepared with weighting of 1/x^2 and Quadratic. The peak area of the analyte for measurement of tissue/IS peak area was substituted into the obtained formula of the calibration curve to calculate the concentration of Compound 3 in tissue (in the calculation, the specific gravity of the tissue homogenate was regarded as 1 g/mL). FIG. 9 is a graph showing the results.
smiles,measurement,setting,value
CCCCCCCCCCCCCCCCOC(=O)CCC(NC(=O)C(CCCCNC(=O)C(N)CCC(=O)O)NC(=O)C(N)CCC(=O)O)C(=O)OCCCCCCCCCCCCCCCC (stereo not shown) [Compound 3],zeta potential of the liposome,"[1]; liposome Compound 3/cholesterol/PEG-Glu2C18 (5/5/0.03), pH 7.4",negative
same,zeta potential as pH was decreased,"[1]; liposome Compound 3/cholesterol/PEG-Glu2C18 (5/5/0.03 molar ratio), acetate buffers pH 7.4-4 (30 mM)",changed from negative to positive
same,pH at which the zeta potential changed from negative to positive,"[1]; liposome compound/cholesterol/PEG-Glu2C18 (5/5/0.03 molar ratio), acetate buffers 20 mM",about 5.7
same,degree of fusion,[2]; pH 5.5 (maximum),about 60%
same,degree of fusion,[2]; pH 7.4,about 15%
same,liposome formation with the compound as main component,[3],liposome was formed
same,distribution of Compound 3 in the organs,"[4]; SD rat, 24 hours after the administration of pH-responsive liposome",mainly localized in the liver and spleen; also recorded: Almost no Compound 3 was localized in the kidney and lung
same,concentration at 24 h,"[4]; liver, Liver, Average value",76800 ng/g
same,concentration at 24 h,"[4]; liver, Liver, animal 1",110000 ng/g
same,concentration at 24 h,"[4]; liver, Liver, animal 2",64400 ng/g
same,concentration at 24 h,"[4]; liver, Liver, animal 3",55600 ng/g
same,concentration at 24 h,"[4]; lung, Lung, Average value",5600 ng/g
same,concentration at 24 h,"[4]; lung, Lung, animal 1",5600 ng/g
same,concentration at 24 h,"[4]; lung, Lung, animal 2",5020 ng/g
same,concentration at 24 h,"[4]; lung, Lung, animal 3",6170 ng/g
same,concentration at 24 h,"[4]; spleen, Spleen, Average value",33500 ng/g
same,concentration at 24 h,"[4]; spleen, Spleen, animal 1",30400 ng/g
same,concentration at 24 h,"[4]; spleen, Spleen, animal 2",33400 ng/g
same,concentration at 24 h,"[4]; spleen, Spleen, animal 3",36700 ng/g

# From patent US8241647B2, “Amphiphilic molecule, molecular assembly comprising the amphiphilic molecule, and use of the molecular assembly” (Waseda University, priority 2007, dated 2012)
